The target in test [1] is T1, BoNT/A LC (Clostridium botulinum, UniProt P0DPI0). The test is described as follows: biochemical. The test is classed as binding, C. botulinum.
Test [2] deals with T1, BoNT/A LC. The test is described as follows: biochemical. Format: biochemical, C. botulinum.
In test [3] the target is T1, BoNT/A LC. Put plainly: biochemical. Details: species or system C. botulinum. Conditions: read-out: % inhibition of the LCA endopeptidase activity.
Test [4] addresses T1, BoNT/A LC. Put plainly: biochemical. The test is classed as binding, C. botulinum. This is another data set of the same source.

1 compound from patent US20220226282A1 (priority 2021, published 2022) can be followed below.

The structures appear in SMILES notation. “And” between values parts separate entries of the source, which are not always exact repeats. Equal entries are not always repeated. Where two headings read alike, the source gives them in different places.

T1 sequence (P0DPI0 2-448 limits assumed): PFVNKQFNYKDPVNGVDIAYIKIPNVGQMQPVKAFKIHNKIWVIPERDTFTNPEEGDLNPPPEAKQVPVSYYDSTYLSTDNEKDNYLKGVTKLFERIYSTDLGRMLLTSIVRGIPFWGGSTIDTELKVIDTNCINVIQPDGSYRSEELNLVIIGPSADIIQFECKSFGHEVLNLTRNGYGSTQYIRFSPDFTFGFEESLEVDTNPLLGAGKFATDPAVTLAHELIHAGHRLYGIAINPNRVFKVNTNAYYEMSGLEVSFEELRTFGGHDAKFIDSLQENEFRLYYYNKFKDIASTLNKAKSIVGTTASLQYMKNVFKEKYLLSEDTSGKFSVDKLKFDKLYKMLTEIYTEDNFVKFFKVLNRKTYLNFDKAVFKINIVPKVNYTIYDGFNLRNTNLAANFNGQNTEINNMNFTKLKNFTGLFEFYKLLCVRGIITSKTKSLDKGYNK

What is called Kd is the free concentration of one partner at which half of the binding sites on the other are occupied at equilibrium, for simple one-to-one binding. The Ki is a dissociation constant, usually derived from enzyme kinetics or from competition with a known ligand. For orientation: inhibition means the percentage by which the read-out fell short of the control. For `O=c1ccc2cc3c(-c4ccc([N+](=O)[O-])cc4)coc3cc2o1` [Compound 1, 3-(4-nitrophenyl)-7H-furo[3,2-g]chromen-7-one], on BoNT/A LC [1], the “Ka (association constant)” value turned out to be 760900 M⁻¹; binding was characterised by a dissociation constant (Kd) of 1310 nM; the “N (number of binding sites, binding stoichiometry)” value was 2.8 and 2.760; the “ΔH (change in enthalpy)” value was -10.00 kJ/mol. The “ΔS (change in entropy)” value on BoNT/A LC [1] amounted to 79.05 J/mol · K. The “antidote activity against paralytic actions of BoNT” value in the test with BoNT was “efficient antidote with the ability to mitigate the paralytic actions of BoNT”. Further, on BoNT/A LC [2], the Vmax is 2.13 ± 0.5 RFU/s and 2.09 ± 0.2 RFU/s and 1.56 ± 1.1 RFU/s; the type of inhibition result is given as “mixed (non-competitive) type of inhibition”. Moreover, the affinity at BoNT/A LC [2] (Ki), expressed as Ki, was 5.8 ± 0.7 µM. This compound also had a Ki on BoNT/A LC [2] (Ki′) of 11.5 ± 2.9 µM. Further, the inhibition at 81 µM at BoNT/A LC [3] is approximately 100%. Besides, at BoNT/A LC [4], the “corrected intensity of Trp fluorescence signal at λmax of BoNT/A LC (signal reduced to)” value was 88% and 84% and 73% and 59%; the “n (number of binding sites)” value stood at 0.90; the ΔH is -70.8 kJ/mol; the ΔS is −0.15 kJ · mol^−1 K^−1. Also, the Kd on BoNT/A LC [4] (Ka (binding constant)) is 38 µM and 115 µM.
